Patent publication US8426449B2, “Aminoalkylphenyl antagonists of prostaglandin D2 receptors” (Panmira Pharmaceuticals, LLC, priority 2008, dated 2013)

Target: T1, human DP2 receptor (Homo sapiens, UniProt Q9Y5Y4)
T1 construct: expressed in transfected cells
T1 sequence (Q9Y5Y4 1-395): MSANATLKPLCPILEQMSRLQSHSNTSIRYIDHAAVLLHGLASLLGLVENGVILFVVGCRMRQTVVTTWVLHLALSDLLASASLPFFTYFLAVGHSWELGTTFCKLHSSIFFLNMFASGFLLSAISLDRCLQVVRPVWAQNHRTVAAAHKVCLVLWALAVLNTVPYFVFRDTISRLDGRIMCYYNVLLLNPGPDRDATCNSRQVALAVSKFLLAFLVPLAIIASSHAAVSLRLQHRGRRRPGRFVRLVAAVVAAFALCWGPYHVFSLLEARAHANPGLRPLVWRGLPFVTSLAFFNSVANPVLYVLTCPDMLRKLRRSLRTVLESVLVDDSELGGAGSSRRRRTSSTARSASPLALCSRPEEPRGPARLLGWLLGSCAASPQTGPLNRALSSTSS
Experiment: DP2/CRTH2 radioligand binding assay using [3H]PGD2
Conditions: hDP2 (CRTH2) binding assay, membranes of HEK293 cells expressing recombinant human DP2
Description: The ability of a compound to bind to the human DP2 receptor is assessed via a radioligand binding assay using [^3H]PGD2. HEK293 cells stably expressing recombinant human DP2 are resuspended in 10 mM Hepes, 7.4 containing 1 mM DTT, lysed and centrifuged at 75,000×g to pellet the membranes. The membranes are resuspended in 10 mM Hepes, 7.4 containing 1 mM DTT and 10% glycerol to approximately 5 mg protein/ml. Membranes (2-10 μg protein/well) are incubated in 96-well plates with 1 nM [^3H]PGD2 and test compound in Assay Buffer (50 mM Hepes, 10 mM MnCl2, 1 mM EDTA, plus or minus 0.2% human serum albumin, pH 7.4) for 60 minutes at room temperature. The reactions are terminated by rapid filtration through Whatman GF/C glass fibre filter plates. The filter plates were pre-soaked in 0.33% polyethylenimine for 30 minutes at room temperature then washed in Wash Buffer (50 mM Hepes, 0.5 M NaCl pH 7.4) prior to harvesting. After harvesting, the filter plates are washed 3 times with 1 ml cold Wash Buffer then dried. Scintillant is then added to the plates and the radioactivity retained on the filters is determined on a Packard TopCount (Perkin Elmer). Specific binding is determined as total radioactive binding minus non-specific binding in the presence of 10 μM PGD2. IC50s were determined using GraphPad prism analysis of drug titration curves.

Row | SMILES | IC50
1 | COC(=O)N(Cc1ccccc1)Cc1cc(Br)ccc1Oc1cccc(CC(=O)O)c1 [Compound 1-3, (3-{2-[(Benzyl-methoxycarbonyl-amino)-methyl]-4-bromo-phenoxy}-phenyl)-acetic acid] | < 300 nM
2 | CCN(Cc1cc(Br)ccc1Oc1cc(CC(=O)O)ccc1OC)C(C)=O [Compound 1-8, (3-{2-[(Acetyl-ethyl-amino)-methyl]-4-bromo-phenoxy}-4-methoxy-phenyl)-acetic acid] | < 300 nM
3 | O=C(O)Cc1cccc(Oc2ccc(Br)cc2CN(C(=O)OCc2ccccc2)C2CCc3ccccc32)c1 (stereo in doubt) [Compound 1-6, (3-{2-[((R)-Benzyloxycarbonyl-indan-1-yl-amino)-methyl]-4-bromo-phenoxy}-phenyl)-acetic acid] | < 300 nM
4 | CCN(Cc1cc(C(F)(F)F)ccc1Oc1cccc(CC(=O)O)c1)C(=O)c1ccccc1 [Compound 1-17, (3-{2-[(Benzoyl-ethyl-amino)-methyl]-4-trifluoromethyl-phenoxy}-phenyl)-acetic acid] | < 300 nM
5 | C[C@H](NCc1cc(C(F)(F)F)ccc1Oc1cccc(CC(=O)O)c1)[C@H](O)c1ccccc1 [Compound 1-12, (3-{2-[((1S,2R)-2-Hydroxy-1-methyl-2-phenyl-ethylamino)-methyl]-4-trifluoromethyl-phenoxy}-phenyl)-acetic acid] | > 1000 nM
6 | COC(=O)N(Cc1ccccc1)Cc1cc(Br)ccc1Oc1cc(CC(=O)O)ccc1OC [Compound 1-11, (3-{2-[(Benzyl-methoxycarbonyl-amino)-methyl]-4-bromo-phenoxy}-4-methoxy-phenyl)-acetic acid] | < 300 nM
7 | CCN(Cc1cc(Br)ccc1Oc1cc(CC(=O)O)ccc1OC)C(=O)OC [Compound 1-10, (3-{4-Bromo-2-[(ethyl-methoxycarbonyl-amino)-methyl]-phenoxy}-4-methoxy-phenyl)-acetic acid] | < 300 nM
8 | CCN(Cc1cc(C(F)(F)F)ccc1Oc1cccc(CC(=O)O)c1)C(=O)Cc1ccccc1 [Compound 1-18, (3-{2-[(Ethyl-phenylacetyl-amino)-methyl]-4-trifluoromethyl-phenoxy}-phenyl)-acetic acid] | > 300 nM
9 | COc1ccc(S(=O)(=O)N(C)Cc2cc(C(F)(F)F)ccc2Oc2cccc(CC(=O)O)c2)cc1 [Compound 1-25, [3-(2-{[(4-Methoxy-benzenesulfonyl)-methyl-amino]-methyl}-4-trifluoromethyl-phenoxy)-phenyl]-acetic acid] | > 300 nM
10 | CC(=O)N(CCc1ccccc1)Cc1cc(Br)ccc1Oc1cccc(CC(=O)O)c1 [Compound 1-1, (3-{2-[(Acetyl-phenethyl-amino)-methyl]-4-bromo-phenoxy}-phenyl)-acetic acid] | < 300 nM
11 | COC(=O)N(Cc1cc(C(F)(F)F)ccc1Oc1cccc(CC(=O)O)c1)C1Cc2ccccc2C1 [Compound 1-20, (3-{2-[(Indan-2-yl-methoxycarbonyl-amino)-methyl]-4-trifluoromethyl-phenoxy}-phenyl)-acetic acid] | < 300 nM
12 | CN(Cc1cc(C(F)(F)F)ccc1Oc1cccc(CC(=O)O)c1)C(=O)Cc1ccccc1 [Compound 1-16, (3-{2-[(Methyl-phenylacetyl-amino)-methyl]-4-trifluoromethyl-phenoxy}-phenyl)-acetic acid] | < 300 nM
13 | COC(=O)N(Cc1cc(C(F)(F)F)ccc1Oc1cccc(CC(=O)O)c1)C1CCc2ccccc21 (stereo in doubt) [Compound 1-19, (3-{2-[((R)-Indan-1-yl-methoxycarbonyl-amino)-methyl]-4-trifluoromethyl-phenoxy}-phenyl)-acetic acid] | < 300 nM
14 | O=C(O)Cc1cccc(Oc2ccc(C(F)(F)F)cc2CNS(=O)(=O)c2ccc(Cl)cc2)c1 [Compound 1-22, (3-{2-[(4-Chloro-benzenesulfonylamino)-methyl]-4-trifluoromethyl-phenoxy}-phenyl)-acetic acid] | < 300 nM
15 | COc1ccc(CC(=O)O)cc1Oc1ccc(Br)cc1CN[C@H]1c2ccccc2C[C@H]1O [Compound 1-7, (3-{4-Bromo-2-[((1S,2R)-2-hydroxy-indan-1-ylamino)-methyl]-phenoxy}-4-methoxy-phenyl)-acetic acid] | > 1000 nM

Next, values leading:

Row | IC50 | SMILES
16 | > 300 nM | CCN(Cc1cc(C(F)(F)F)ccc1Oc1cccc(CC(=O)O)c1)S(=O)(=O)c1ccc(S(C)(=O)=O)cc1 [Compound 1-28, [3-(2-{[Ethyl-(4-methanesulfonyl-benzenesulfonyl)-amino]-methyl}-4-trifluoromethyl-phenoxy)-phenyl]-acetic acid]
17 | < 300 nM | CCN(Cc1cc(C(F)(F)F)ccc1Oc1cccc(CC(=O)O)c1)S(=O)(=O)c1ccc(Br)cc1 [Compound 1-31, [3-(2-{[(4-Bromo-benzenesulfonyl)-ethyl-amino]-methyl}-4-trifluoromethyl-phenoxy)-phenyl]-acetic acid]
18 | < 300 nM | CCN(Cc1cc(C(F)(F)F)ccc1Oc1cccc(CC(=O)O)c1)S(=O)(=O)c1ccc(Nc2cccc(C)c2)cc1 [Compound 1-32, [3-(2-{[Ethyl-(4-m-tolylamino-benzenesulfonyl)-amino]-methyl}-4-trifluoromethyl-phenoxy)-phenyl]-acetic acid]
19 | < 300 nM | CCN(Cc1cc(C(F)(F)F)ccc1Oc1cccc(CC(=O)O)c1)S(=O)(=O)c1ccc(N(C)c2cccc(C)c2)cc1 [Compound 1-33, {3-[2-({Ethyl-[4-(methyl-m-tolyl-amino)-benzenesulfonyl]-amino}-methyl)-4-trifluoromethyl-phenoxy]-phenyl}-acetic acid]
20 | < 300 nM | COc1ccc(CC(=O)O)cc1Oc1ccc(C(F)(F)F)cc1CN(Cc1ccccc1)C(C)=O [Compound 1-35, (3-{2-[(Acetyl-benzyl-amino)-methyl]-4-trifluoromethyl-phenoxy}-4-methoxy-phenyl)-acetic acid]
21 | < 300 nM | CCN(Cc1cc(C(F)(F)F)ccc1Oc1cccc(CC(=O)O)c1)S(=O)(=O)c1ccc(C(C)=O)cc1 [Compound 1-29, [3-(2-{[(4-Acetyl-benzenesulfonyl)-ethyl-amino]-methyl}-4-trifluoromethyl-phenoxy)-phenyl]-acetic acid]
22 | < 300 nM | COC(=O)N(Cc1cc(NC(C)=O)ccc1Oc1cccc(CC(=O)O)c1)[C@@H](C)Cc1ccccc1 [Compound 1-38, [3-(4-Acetylamino-2-{[methoxycarbonyl-((S)-1-methyl-2-phenyl-ethyl)-amino]-methyl}-phenoxy)-phenyl]-acetic acid]
23 | < 300 nM | CCN(Cc1cc(NC(=O)c2ccc(Cl)cc2)ccc1Oc1cc(CC(=O)O)ccc1OC)C(=O)OCc1ccccc1 [Compound 1-44, {3-[2-[(Benzyloxycarbonyl-ethyl-amino)-methyl]-4-(4-chloro-benzoylamino)-phenoxy]-4-methoxy-phenyl}-acetic acid]
24 | > 300 nM | O=C(O)CCn1c2c(c3ccccc31)C[C@H](NS(=O)(=O)c1ccc(F)cc1)CC2 [Ramatroban, reference compound]
25 | > 300 nM | COC(=O)N(Cc1cc(N(C)S(C)(=O)=O)ccc1Oc1cccc(CC(=O)O)c1)[C@@H](C)Cc1ccccc1 [Compound 1-42, [3-(4-(Methanesulfonyl-methyl-amino)-2-{[methoxycarbonyl-((S)-1-methyl-2-phenyl-ethyl)-amino]-methyl}-phenoxy)-phenyl]-acetic acid]
